Here are results for 8 compounds from ChEMBL document CHEMBL1150636, “Antiemetic principles of Alpinia officinarum” (2002).

Each structure is given as a SMILES string.

One experiment concerns Gallus gallus. In words: Antiemetic activity against copper sulfate-induced emesis in young chicks assessed as decrease in retching at 20 mg/kg, ip measured for 10 mins. The format is functional. The following applies: route intraperitoneal.
As a reminder, the inhibition in vivo is the percentage by which the read-out fell short of the control. As to `O=C(CCc1ccccc1)CC(O)CCc1ccc(O)cc1` (stereo not drawn), the inhibition in vivo at 20 mg/kg is 71%.

As for `O=c1c(O)c(-c2ccccc2)oc2cc(O)cc(O)c12` [GALANGIN], the inhibition in vivo at 20 mg/kg stood at 25.4%.

With `COc1ccc(-c2oc3cc(O)cc(O)c3c(=O)c2O)cc1` [KAEMPFERIDE], the inhibition in vivo at 20 mg/kg came to 63.3%.

Another experiment concerns Gallus gallus. Nature of the experiment: Antiemetic activity against copper sulphate-induced emesis in young chicks assessed as decrease in retching at 50 mg/kg, ip measured for 10 mins. The following applies: route intraperitoneal. The format is functional.
For `CCCCCCCCCCCCCCCC(=O)OC[C@H]1O[C@@H](O[C@H]2CC[C@@]3(C)C(=CC[C@H]4[C@@H]5CC[C@H]([C@H](C)CC[C@H](CC)C(C)C)[C@@]5(C)CC[C@@H]43)C2)[C@H](O)[C@@H](O)[C@@H]1O`, the inhibition in vivo at 50 mg/kg stood at 50.9%.

Take `COc1cc(CCC(O)CC(O)CCc2ccccc2)ccc1O` (stereo not drawn): the inhibition in vivo at 50 mg/kg stood at 45.7%.

Turning to `COc1cc(CCC(=O)C[C@H](O)CCc2ccc(O)cc2)ccc1O`, the inhibition in vivo at 50 mg/kg is 12.4%.

As to `Oc1ccc(CC[C@@H](O)C[C@H](O)CCc2ccccc2)cc1`, the inhibition in vivo at 50 mg/kg came to 37.7%.

`COc1cc(CC[C@@H](O)CC(=O)CCc2ccc(O)cc2)ccc1O`: the inhibition in vivo at 50 mg/kg came to 38.3%.
